In patent US8608967B2, “Multiple stationary phase matrix and uses thereof” (The Board of Trustees of the University of Arkansas, priority 2011, dated 2013):

Test: Dual-phase UHPLC-MS/MS profiling of warfarin and hydroxywarfarins in plasma of patients receiving warfarin
Conditions: for presence of metabolite in human plasma (in words): four plasma samples of patients receiving warfarin
Procedure: Human plasma samples were processed as described previously (Wikoff et al., Proc Natl Acad Sci, 2009, 106:3698). […] Following equilibration, ice cold 0.2% formic acid in H2O (190 μL) was added to each sample, followed by ice cold 0.2% formic acid in acetonitrile (1000 μL). Samples were allowed to precipitate at 4° C. for 30 minutes, followed by centrifugation (10 min at 16,000 g) in a microcentrifuge. The supernatant (1000 μL) was then transferred to a new vial and dried down in a speed vacuum concentrator. Plasma extracts were resolubilized (40 μL) in mobile phase (55% methanol, 45% H2O with 0.01% formic acid) maintaining a 1:1 ratio with the original volume of plasma.
Standard curves containing all hydroxywarfarins and deuterated internal standards were prepared in potassium phosphate (50 mM, pH 7.4) and analyzed in triplicate with the assay conditions described above. […] The limit of quantification (LOQ) was defined as 5 times the LOD. Metabolite concentrations calculated to be below the limit of quantification were reported as LOQ.
All samples were from males and are referred to as M61, […], […], and M80, respectively. Plasma samples were extracted as described above, and analyzed independently on three separate days.

| SMILES | presence of metabolite in human plasma (in words) | most abundant metabolite in plasma (patients M76 and M80) | total plasma concentration compared with S-7-hydroxywarfarin (patients M61 and M75, 10-hydroxywarfarin derived from both R and S-warfarin) |
| --- | --- | --- | --- |
| CC(=O)C[C@@H](c1ccccc1)c1c(O)c2ccc(O)cc2oc1=O [S7, S-7-hydroxywarfarin] | major observed metabolites | the most abundant metabolite |  |
| CC(=O)C(O)[C@H](c1ccccc1)c1c(O)c2ccccc2oc1=O (single isomer, unassigned) [R10a] | major observed metabolites |  |  |
| CC(=O)C(O)[C@H](c1ccccc1)c1c(O)c2ccccc2oc1=O (single isomer, unassigned) [R10b] | major observed metabolites |  |  |
| CC(=O)C[C@H](c1ccccc1)c1c(O)c2ccc(O)cc2oc1=O [R7, R-7-hydroxywarfarin] | observed in all four plasma samples |  |  |
| CC(=O)CC(c1ccc(O)cc1)c1c(O)c2ccccc2oc1=O (stereo not drawn) [4″-hydroxywarfarin] | observed in some samples, but was below the limit of quantitation |  |  |
| CC(=O)C(O)C(c1ccccc1)c1c(O)c2ccccc2oc1=O (stereo not drawn) [10-hydroxywarfarin] |  |  | higher than S-7-hydroxywarfarin concentrations |
| CC(=O)CC(c1ccccc1)c1c(O)c2cccc(O)c2oc1=O (stereo not drawn) [8-hydroxywarfarin] | below the limit of detection |  |  |
| CC(=O)C(O)[C@@H](c1ccccc1)c1c(O)c2ccccc2oc1=O (stereo partly drawn) [S10a] | detected but below the limit of quantitation |  |  |
